Here are results for 13 compounds from ChEMBL document CHEMBL1138966 (Bioorg Med Chem Lett, 2006).

≈ marks a conversion by molar mass, not a printed value.

For data set [1], the target named is Human immunodeficiency virus type 1 integrase (Human immunodeficiency virus 1, UniProt Q7ZJM1). Description: Inhibition of strand transfer activity of HIV integrase.
Data set [2] deals with Human immunodeficiency virus 1. Description: Antiviral activity against HIV1 3B in MT4 cells. The data set is classed as functional, organism-based. The settings on record: Human immunodeficiency virus 1, 3B.
For another data set, the system named is MT4. Kind of data set: Cytotoxicity against MT4 cells. The format is functional. The settings on record: Homo sapiens.
The test system of data set [3] is Human immunodeficiency virus 1. Kind of data set: Antiviral activity against HIV1 3B assessed as protein binding effect in MT2 cells. The format is functional, organism-based. The settings on record: Human immunodeficiency virus 1, 3B.
Data set [4] relates to Human immunodeficiency virus 1. Description: Antiviral activity against HIV1 3B in MT2 cells. The settings on record: Human immunodeficiency virus 1, 3B. The data set is classed as functional, organism-based.
A further data set can be described thus: physchem. The settings on record: buffer, pH 7.3.
For data set [5] the following is noted: buffer, pH 7.3.

Sequence of Human immunodeficiency virus type 1 integrase (Q7ZJM1 whole entry): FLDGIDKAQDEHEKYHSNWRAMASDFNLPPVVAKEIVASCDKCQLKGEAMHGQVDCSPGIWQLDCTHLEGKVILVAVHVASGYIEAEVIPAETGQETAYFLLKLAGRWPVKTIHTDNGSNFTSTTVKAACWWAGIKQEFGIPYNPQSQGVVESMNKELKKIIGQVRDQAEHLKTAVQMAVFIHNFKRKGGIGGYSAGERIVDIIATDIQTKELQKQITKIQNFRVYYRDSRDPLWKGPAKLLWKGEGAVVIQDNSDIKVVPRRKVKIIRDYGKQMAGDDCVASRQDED

Consider `COc1c2c(c(O)c3ncccc13)C(=O)N(Cc1ccc(F)cc1)C2`, for which the half-inhibitory concentration (IC50) (usually the concentration needed to halve the response being measured) in data set [1] is 50 nM. The 50% effective concentration (EC50) (usually the midpoint of the concentration-response curve) in data set [2] worked out at 89 nM. Also, in the data set with MT4, it took 5100 nM to reach half-maximal cytotoxicity (CC50).

In turn, `O=C(NCc1ccc(F)cc1)c1ccc2cccnc2c1O` displayed an IC50 in data set [1] of 2000 nM. Moreover, the EC50 in data set [2] was greater than 10000 nM.

Compound `O=C1c2c(c(C(=O)N3CCOCC3)c3cccnc3c2O)CN1Cc1ccc(F)cc1` displayed an IC50 in data set [1] of 36 nM. Moreover, the figures for the EC50 in data set [3] and in data set [4] were 54 nM and 3.4 nM, respectively. The solubility (commonly the concentration that dissolves in the medium under given conditions) in the data set “physchem” stood at 97 µM (≈ 40.9 µg/mL). For the same compound, the CC50 – broadly, the concentration giving 50% cytotoxicity – in the data set on MT4 turned out to be 4000 nM.

In turn, `CN(C)C(=O)Oc1c2c(c(O)c3ncccc13)C(=O)N(Cc1ccc(F)cc1)C2` showed an IC50 in data set [1] of 760 nM. Moreover, the EC50 in data set [2] is 3 nM. Half-maximal cytotoxicity in the data set with MT4 (CC50) was put at 1500 nM.

For `O=C(NCc1ccccn1)c1c2c(c(O)c3ncccc13)C(=O)N(Cc1ccc(F)cc1)C2`, half-maximal inhibition in data set [1] (IC50) required 190 nM. Further, the EC50 in data set [3] is 94 nM; in data set [4], 9.8 nM. Further, the solubility in “physchem” amounted to 36 µM (≈ 15.9 µg/mL). The compound also came in with a cytotoxic concentration (CC50) with MT4 of 1600 nM.

On to `CCOC(=O)c1cccc(-c2c3c(c(O)c4ncccc24)C(=O)N(Cc2ccc(F)cc2)C3)c1`, for which, in data set [1], the IC50 came to 2100 nM. This compound displayed an EC50 in data set [2] of 340 nM. Also, the midpoint of cytotoxicity with MT4, the CC50, lay at 1000 nM.

For `O=C1c2c(cc3cccnc3c2O)CN1Cc1ccc(F)cc1`, the values for the IC50 in data set [1] and in data set [2] were 70 nM and 100 nM, respectively.

As to `CN(C)C(=O)Oc1c2c(c(O)c3ncccc13)C(=O)N(Cc1ccc(F)cc1)C2=O`, the IC50 in data set [1] turned out to be 2400 nM; in data set [2], 1180 nM. In addition, the solubility in the data set “physchem” stood at 2.5 µM (≈ 1.02 µg/mL). In the data set with MT4, this compound registered a CC50 of 22000 nM.

In data set [1], `COc1c2c(c(O)c3ncccc13)C(=O)N(Cc1ccc(F)cc1)C2=O` registered an IC50 of 80 nM. Moreover, in data set [2], the EC50 was determined as 7500 nM. In “physchem”, this compound gave a solubility of less than 1.4 µM. Besides, in the data set on MT4, the CC50 turned out to be 19000 nM.

In data set [1], `CCOc1ccc(-c2c3c(c(O)c4ncccc24)C(=O)N(Cc2ccc(F)cc2)C3)cc1` showed an IC50 of 1200 nM. The compound also came in with an EC50 in data set [2] of 780 nM. Half-maximal cytotoxicity in the data set on MT4 (CC50) was put at 1000 nM.

Consider `CCOC(=O)c1ccccc1-c1c2c(c(O)c3ncccc13)C(=O)N(Cc1ccc(F)cc1)C2`, for which it took 350 nM to reach half-maximal inhibition in data set [1] (IC50). Also, a half-maximal response in data set [2] (EC50) required 70 nM. Moreover, the CC50 in the data set on MT4 stood at 400 nM.

In turn, `O=C1c2c(c(-c3c(F)cccc3F)c3cccnc3c2O)CN1Cc1ccc(F)cc1` returned an IC50 in data set [1] of 335 nM. In data set [2], this compound came in with an EC50 of 11 nM. This compound also displayed a CC50 with MT4 of 300 nM.

For the compound `O=C(NCc1ccc(F)cc1)c1nc(N2CCCCS2(=O)=O)c2cccnc2c1O`, the solubility in data set [5] was 7.2 µM (≈ 3.1 µg/mL). Besides, half-maximal inhibition in data set [1] (IC50) required 50 nM. In addition, the EC50 worked out at 88 nM in data set [3] and 3.8 nM in data set [4]. The compound also had a CC50 in the data set on MT4 of 1500 nM.
